Experimental data as given in patent US8536187B2 (Gilead Sciences, Inc., priority 2008, dated 2013).

Experiments:
[1] = CC50 assay (CellTiter-Glo) in Huh-7 HCV replicon cells; assay type: cell-based; details: human
Summary of the method: (§1)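 Cytotoxicity (CC50) read by CellTiter-Glo luminescence after 10 min, and antiviral EC50 by luciferase signal after 30 min lysis with substrate, both at room temperature. Preceding step: 3-day exposure of 6000 Huh-7 HCV replicon cells per well to compound dilution series at 37° C, 5% CO2, in 0.5% DMSO.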

[2] = system: HCV replicon in human hepatoma Huh-7 cell line; assay: Anti-HCV replicon assay, EC50 (luciferase luminescence); assay type: cell-based; details: Hepatitis C virus, Huh-7, 72 h
Summary of the method: as §1

Row | Compound | CC50 at 3 days ([1]; Table 2, 3 days incubation) [nM] | EC50 [2] [nM] | CC50 at 3 days ([1]; Table 1, 3 days incubation) [nM]
1 | C[C@H](Cn1cncn1)Nc1nc(NCC(F)(F)F)c2nc(C#CC3CC3)ccc2n1 [Example 281, (R)-N^2-(1-(1H-1,2,4-triazol-1-yl)propan-2-yl)-6-(2-cyclopropyl-ethynyl)-N^4-(2,2,2-trifluoro-ethyl)pyrido[3,2-d]pyrimidine-2,4-diamine] | > 10000 | 250 to 2000 | –
2 | Cc1nc(C)n(-c2ccc(CNc3nc(OC4(C)CC4)c4nc(-c5cccc(S(C)(=O)=O)c5)ccc4n3)cc2)n1 [Example 203, N-(4-(3,5-dimethyl-1H-1,2,4-triazol-1-yl)benzyl)-4-(1-methylcyclopropoxy)-6-(3-(methylsulfonyl)phenyl)pyrido [3,2-d]pyrimidin-2-amine] | > 10000 | < 100 | –
3 | CS(=O)(=O)Nc1cccc(CNc2nc(NC3(C(F)(F)F)CC3)c3nc(-c4ccc(F)cc4)ccc3n2)c1 [Example 87, N-(3-((6-(4-fluorophenyl)-4-(1-(trifluoromethyl)cyclopropyl-amino)pyrido[3,2-d]pyrimidin-2-ylamino)methyl)phenyl) methanesulfonamide] | > 10000 | 100 to 250 | –
4 | COc1ccc(-c2ccc3nc(NCc4ccc(-n5cncn5)cc4)nc(NCC(F)(F)F)c3n2)cc1S(N)(=O)=O [Example 237, 5-(2-(4-(1H-1,2,4-triazol-1-yl)benzylamino)-4-(2,2,2-trifluoroethylamino)pyrido [3,2-d]pyrimidin-6-yl)-2-methoxybenzenesulfonamide] | > 10000 | < 100 | –
5 | Fc1ccc(-c2ccc3nc(NCc4cccc(-n5cccn5)c4)nc(NCC(F)(F)F)c3n2)cc1 [Example 2, 6-(4-Fluoro-phenyl)-N2-(3-pyrazol-1-yl-benzyl)-N4-(2,2,2-trifluoro-ethyl)-pyrido[3,2-d]pyrimidine-2,4-diamine] | – | < 100 | > 25000
6 | C#Cc1ccc2nc(NCc3ccc(S(N)(=O)=O)cc3)nc(N[C@@H](C)C(F)(F)F)c2n1 [Example 289, (S)-4-((6-ethynyl-4-(1,1,1-trifluoropropan-2-ylamino)pyrido[3,2-d]pyrimidin-2-ylamino)methyl)benzene-sulfonamide] | 1000 to 10000 | < 100 | –
7 | NS(=O)(=O)c1ccc(CNc2nc(NC3(C(F)(F)F)CC3)c3nc(-c4cccc(N5CCCS5(=O)=O)c4)ccc3n2)cc1 [Example 51, 4-((6-(3-(1,1-dioxo-isothiazolidin-2-yl)phenyl)-4-(1-(trifluoromethyl)cyclopropyl-amino)pyrido[3,2-d]pyrimidin-2-ylamino)methyl)benzene-sulfonamide] | 1000 to 10000 | 250 to 2000 | –
8 | CCS(=O)(=O)c1cccc(-c2ccc3nc(NCc4ccc(-n5cncn5)cc4)nc(NCC(F)(F)F)c3n2)c1 [Example 181, N^2-(4-(1H-1,2,4-triazol-1-yl)benzyl)-6-(3-(ethylsulfonyl)phenyl)-N^4-(2,2,2-trifluoroethyl)pyrido [3,2-d]pyrimidine-2,4-diamine] | > 10000 | < 100 | –
9 | C#Cc1ccc2nc(N[C@H](C)c3ccc(S(N)(=O)=O)cc3)nc(OC3CC3)c2n1 [Example 294, (R)-4-(1-(4-cyclopropoxy-6-ethynylpyrido[3,2-d]pyrimidin-2-ylamino)ethyl)benzene-sulfonamide] | 1000 to 10000 | < 100 | –
10 | NS(=O)(=O)c1cccc(CNc2nc(NC3(C(F)(F)F)CC3)c3nc(-c4ccc(F)cc4)ccc3n2)c1 [Example 116, 3-((6-(4-fluorophenyl)-4-(1-(trifluoromethyl)cyclopropyl-amino)pyrido[3,2-d]pyrimidin-2-ylamino)methyl)benzene-sulfonamide] | > 10000 | < 100 | –
11 | CC(C)Oc1ccc(-c2ccc3nc(N[C@H](C)Cn4cncn4)nc(NCC(F)(F)F)c3n2)cn1 [Example 241, N^2-((R)-1-(1H-1,2,4-triazol-1-yl)propan-2-yl)-6-(6-isopropoxypyridin-3-yl)-N^4-(2,2,2-trifluoroethyl)pyrido [3,2-d]pyrimidine-2,4-diamine] | > 10000 | < 100 | –
12 | C[C@H](Cn1cncn1)Nc1nc(NCC(F)(F)F)c2nc(-c3cccc(S(C)(=O)=O)c3)ccc2n1 [Example 168, N^2-((R)-1-(1H-1,2,4-triazol-1-yl)propan-2-yl)-6-(3-(methylsulfonyl)phenyl)-N^4-(2,2,2-trifluoroethyl)pyrido [3,2-d]pyrimidine-2,4-diamine] | > 10000 | 100 to 250 | –
13 | C#Cc1ccc2nc(NCc3ccc(-n4cncn4)cc3)nc(N[C@@H](C)C(F)(F)F)c2n1 [Example 291, (S)-N^2-(4-(1H-1,2,4-triazol-1-yl)benzyl)-6-ethynyl-N^4-(1,1,1-trifluoropropan-2-yl)pyrido [3,2-d]pyrimidine-2,4-diamine] | > 10000 | < 100 | –
14 | CC(Nc1nc(NCC(F)(F)F)c2nc(-c3cccc(S(C)(=O)=O)c3)ccc2n1)c1ccc(-n2cncn2)cc1 (stereo not shown) [Example 19, 6-(3-Methanesulfonyl-phenyl)-N2-[1-(4-[1,2,4]triazol-1-yl-phenyl)-ethyl]-N4-(2,2,2-trifluoro-ethyl)-pyrido[3,2-d]pyrimidine-2,4-diamine] | – | < 100 | 10000 to 25000
15 | COc1ccc(-c2ccc3nc(NCc4ccc(F)c(F)c4)nc(NC4(C(F)(F)F)CC4)c3n2)cc1S(C)(=O)=O [Example 44, N^2-(3,4-difluorobenzyl)-6-(4-methoxy-3-(methylsulfonyl)phenyl)-N^4-(1-(trifluoromethyl)cyclopropyl)pyrido[3,2-d] pyrimidine-2,4-diamine] | 1000 to 10000 | < 100 | –
16 | NS(=O)(=O)c1ccc(Cl)c(CNc2nc(NC3(C(F)(F)F)CC3)c3nc(-c4ccc(F)cc4)ccc3n2)c1 [Example 41, 4-chloro-3-((6-(4-fluorophenyl)-4-(1-(trifluoromethyl)cyclopropyl-amino)pyrido[3,2-d]pyrimidin-2-ylamino)methyl)benzene-sulfonamide] | 1000 to 10000 | 100 to 250 | –
17 | COc1ccc(-c2ccc3nc(NCc4ccc(C)c(F)c4)nc(NCC(F)(F)F)c3n2)cc1S(C)(=O)=O [Example 176, N^2-(3-fluoro-4-methylbenzyl)-6-(4-methoxy-3-(methylsulfonyl)phenyl)-N^4-(2,2,2-trifluoroethyl) pyrido[3,2-d]pyrimidine-2,4-diamine] | 1000 to 10000 | < 100 | –
18 | C[C@@H](Nc1nc(NC2(C(F)(F)F)CC2)c2nc(-c3cnc(NC4CC4)c(F)c3)ccc2n1)c1ccc(-n2cncn2)cc1 [Example 131, N^2-((R)-1-(4-(1H-1,2,4-triazol-1-yl)phenyl)ethyl)-6-(6-(cyclopropylamino)-5-fluoropyridin-3-yl)-N^4-(1-(trifluoromethyl)cyclopropyl) pyrido[3,2-d]pyrimidine-2,4-diamine] | 1000 to 10000 | 100 to 250 | –
19 | CCOc1ccc(-c2ccc3nc(NCc4ccc(-n5cncn5)cc4)nc(OC4(C)CC4)c3n2)cc1S(N)(=O)=O [Example 263, 5-(2-(4-(1H-1,2,4-triazol-1-yl)benzylamino)-4-(1-methylcyclopropoxy)pyrido [3,2-d)pyrimidin-6-yl)-2-ethoxybenzenesulfonamide] | 1000 to 10000 | < 100 | –
20 | COc1ccc(-c2ccc3nc(NCc4ccc(S(N)(=O)=O)cc4)nc(NCC(F)(F)F)c3n2)cc1S(N)(=O)=O [Example 225, 4-((6-(4-methoxy-3-(aminosulfonyl)phenyl)-4-(2,2,2-trifluoroethylamino)pyrido[3,2-d]pyrimidin-2-ylamino)methyl)benzene-sulfonamide] | > 10000 | < 100 | –
21 | c1ncn(-c2ccc(CNc3nc(OC4CC4)c4nc(-c5ccc(OC6CC6)nc5)ccc4n3)cc2)n1 [Example 248, N-(4-(1H-1,2,4-triazol-1-yl)benzyl)-4-cyclopropoxy-6-(6-cyclopropoxypyridin-3-yl)pyrido[3,2-d]pyrimidin-2-amine] | 1000 to 10000 | < 100 | –
22 | C[C@@H](Nc1nc(NCC(F)(F)F)c2nc(-c3ccc(Cl)c(S(C)(=O)=O)c3)ccc2n1)c1ccc(S(N)(=O)=O)cc1 [Example 155, 4-((R)-1-(6-(4-chloro-3-(methylsulfonyl)phenyl)-4-(2,2,2-trifluoroethylamino)pyrido[3,2-d]pyrimidin-2-ylamino)ethyl)benzene-sulfonamide] | 1000 to 10000 | < 100 | –
23 | COc1ccc(-c2ccc3nc(NCc4ccc(F)c(F)c4)nc(NCC(F)(F)F)c3n2)cc1S(N)(=O)=O [Example 234, 5-(2-(3,4-difluorobenzylamino)-4-(2,2,2-trifluoroethylamino)pyrido[3,2-d]pyrimidin-6-yl)-2-methoxybenzenesulfonamide] | > 10000 | < 100 | –
24 | C#Cc1ccc2nc(NCc3ccc(S(N)(=O)=O)cc3)nc(NCC(F)(F)F)c2n1 [Example 288, 4-((6-ethynyl-4-(2,2,2-trifluoroethylamino)pyrido [3,2-d]pyrimidin-2-ylamino)methyl)benzenesulfonamide] | 1000 to 10000 | < 100 | –
25 | C[C@@H](Nc1nc(NC2(C(F)(F)F)CCC2)c2nc(-c3ccc(F)cc3)ccc2n1)c1ccc(S(N)(=O)=O)cc1 [Example 72, (R)-4-(1-(6-(4-fluorophenyl)-4-(1-(trifluoromethyl)cyclo-butylamino)pyrido[3,2-d]pyrimidin-2-ylamino)ethyl) benzenesulfonamide] | > 10000 | 250 to 2000 | –
26 | CS(=O)(=O)c1cccc(CNc2nc(NC3(C(F)(F)F)CC3)c3nc(-c4ccc(F)cc4C#N)ccc3n2)c1 [Example 104, 2-(2-(3-(methylsulfonyl)benzylamino)-4-(1-(trifluoromethyl)cyclopropyl-amino)pyrido[3,2-d]pyrimidin-6-yl)-5-fluorobenzonitrile] | > 10000 | 100 to 250 | –
